Values of other authors as cited in paper PMC10166914, “GTN057, a komaroviquinone derivative, induced myeloma cells' death in vivo and inhibited c‐MET tyrosine kinase” (Cancer Medicine, 2023).

Test system: MUM24 cells
Design: method as in PMID 28882484
Details: read-out: IC50 antiproliferative activity; cited from earlier work

## COc1c(O)c2c(c(O)c1C(C)C)C(=O)CC1C(C)(C)CCC[C@]1(O)C2 (stereo partly shown) [GTN054]
  IC50: 6.13 µM
